Experimental data published in ChEMBL document CHEMBL3885861, “Open TG-GATES”.

Organism: Rattus norvegicus
Test: Open TG-GATES - Regimen: Single
Format: toxicity, organism-based, Sprague-Dawley
Set-up: regimen Single, gender Male, age 6 weeks
Details: in vivo, po, 3 mg/kg, route gavage, dose level Low; for APTT / Bas / Eos / Fbg / Hb / Ht / Lym / MCH / MCHC / MCV / Mono / Neu / PT / Plat / RBC / Ret / WBC: tissue Blood; for KIDNEY_L / KIDNEY_R / KIDNEY_TOTAL: tissue Kidney; for LIVER: tissue Liver; for A/G / ALP / ALT / AST / BUN / CRE / Ca / Cl / DBIL / GLC / IP / K / LDH / Na / PL / RALB / TBIL / TC / TG / TP / gamma-GTP: tissue Plasma

C=CCO [ALLYL ALCOHOL]
TERMINAL_BW (3 h): 223.5 g | APTT (3 h): 18.8 s | Bas (3 h): 0% | Eos (3 h): 1% | Fbg (3 h): 234.6 mg/dL | Hb (3 h): 13.8 g/dL | Ht (3 h): 38.7% | Lym (3 h): 76% | MCH (3 h): 21.7 pg | MCHC (3 h): 35.6% | MCV (3 h): 60.9 fL | Mono (3 h): 3.2% | Neu (3 h): 19.8% | PT (3 h): 11.8 s | Plat (3 h): 126.8 x10_4/uL | RBC (3 h): 635.2 x10_4/ul | Ret (3 h): 6.4% | WBC (3 h): 81.6 x10_2/uL | KIDNEY_L (3 h): 1 g | KIDNEY_R (3 h): 1 g | KIDNEY_TOTAL (3 h): 2 g | LIVER (3 h): 10.2 g | A/G (3 h): 1.6 | ALP (3 h): 1094.8 IU/L | ALT (3 h): 37.4 IU/L | AST (3 h): 67.6 IU/L | BUN (3 h): 11.4 mg/dL | CRE (3 h): 0.4 mg/dL | Ca (3 h): 11.2 mg/dL | Cl (3 h): 100.6 meq/L | DBIL (3 h): 0.5 mg/dL | GLC (3 h): 195.2 mg/dL | IP (3 h): 8.6 mg/dL | K (3 h): 3.7 meq/L | LDH (3 h): 235.4 IU/L | Na (3 h): 139.8 meq/L | PL (3 h): 181 mg/dL | RALB (3 h): 3.5 g/dL | TBIL (3 h): 0.6 mg/dL | TC (3 h): 81 mg/dL | TG (3 h): 262 mg/dL | TP (3 h): 5.7 g/dL | gamma-GTP (3 h): 0.6 IU/L | TERMINAL_BW (6 h): 220.1 g | APTT (6 h): 19 s | Bas (6 h): 0% | Eos (6 h): 1% | Fbg (6 h): 220.8 mg/dL | Hb (6 h): 13.2 g/dL | Ht (6 h): 38.3% | Lym (6 h): 76% | MCH (6 h): 21 pg | MCHC (6 h): 34.3% | MCV (6 h): 61 fL | Mono (6 h): 3.8% | Neu (6 h): 18.8% | PT (6 h): 12.2 s | Plat (6 h): 122.5 x10_4/uL | RBC (6 h): 627.4 x10_4/ul | Ret (6 h): 7.1% | WBC (6 h): 102.5 x10_2/uL | KIDNEY_L (6 h): 0.9 g | KIDNEY_R (6 h): 1 g | KIDNEY_TOTAL (6 h): 1.9 g | LIVER (6 h): 9.4 g | A/G (6 h): 1.6 | ALP (6 h): 1095 IU/L | ALT (6 h): 33 IU/L | AST (6 h): 70.6 IU/L | BUN (6 h): 7.8 mg/dL | CRE (6 h): 0.4 mg/dL | Ca (6 h): 10.7 mg/dL | Cl (6 h): 102.8 meq/L | DBIL (6 h): 0.1 mg/dL | GLC (6 h): 192.4 mg/dL | IP (6 h): 8.7 mg/dL | K (6 h): 3.9 meq/L | LDH (6 h): 222.4 IU/L | Na (6 h): 141.2 meq/L | PL (6 h): 149.6 mg/dL | RALB (6 h): 3.4 g/dL | TBIL (6 h): 0.2 mg/dL | TC (6 h): 76.4 mg/dL | TG (6 h): 77.8 mg/dL | TP (6 h): 5.5 g/dL | gamma-GTP (6 h): 1 IU/L | TERMINAL_BW (9 h): 215.7 g | APTT (9 h): 18.7 s | Bas (9 h): 0% | Eos (9 h): 1.2% | Fbg (9 h): 221.8 mg/dL | Hb (9 h): 13.4 g/dL | Ht (9 h): 39.1% | Lym (9 h): 75.8% | MCH (9 h): 20.9 pg | MCHC (9 h): 34.3% | MCV (9 h): 61 fL | Mono (9 h): 3.2% | Neu (9 h): 20.2% | PT (9 h): 12.2 s | Plat (9 h): 124 x10_4/uL | RBC (9 h): 640.4 x10_4/ul | Ret (9 h): 6.9% | WBC (9 h): 65 x10_2/uL | KIDNEY_L (9 h): 1 g | KIDNEY_R (9 h): 1 g | KIDNEY_TOTAL (9 h): 2 g | LIVER (9 h): 9.1 g | A/G (9 h): 1.5 | ALP (9 h): 994.6 IU/L | ALT (9 h): 27.6 IU/L | AST (9 h): 59.2 IU/L | BUN (9 h): 9.6 mg/dL | CRE (9 h): 0.3 mg/dL | Ca (9 h): 10.5 mg/dL | Cl (9 h): 101.8 meq/L | DBIL (9 h): 0.08 mg/dL | GLC (9 h): 210.2 mg/dL | IP (9 h): 10.7 mg/dL | K (9 h): 3.8 meq/L | LDH (9 h): 169.2 IU/L | Na (9 h): 140.8 meq/L | PL (9 h): 143 mg/dL | RALB (9 h): 3.3 g/dL | TBIL (9 h): 0.1 mg/dL | TC (9 h): 71.8 mg/dL | TG (9 h): 62 mg/dL | TP (9 h): 5.5 g/dL | gamma-GTP (9 h): 0.8 IU/L | TERMINAL_BW (24 h): 232.9 g | APTT (24 h): 20.4 s | Bas (24 h): 0% | Eos (24 h): 1% | Fbg (24 h): 230 mg/dL | Hb (24 h): 13.6 g/dL | Ht (24 h): 39.9% | Lym (24 h): 78.8% | MCH (24 h): 20.5 pg | MCHC (24 h): 34% | MCV (24 h): 60.4 fL | Mono (24 h): 3.4% | Neu (24 h): 16.4% | PT (24 h): 11.7 s | Plat (24 h): 127.6 x10_4/uL | RBC (24 h): 660.4 x10_4/ul | Ret (24 h): 6.2% | WBC (24 h): 97.6 x10_2/uL | KIDNEY_L (24 h): 1 g | KIDNEY_R (24 h): 1 g | KIDNEY_TOTAL (24 h): 2 g | LIVER (24 h): 11.2 g | A/G (24 h): 1.5 | ALP (24 h): 863.4 IU/L | ALT (24 h): 35 IU/L | AST (24 h): 64.4 IU/L | BUN (24 h): 16 mg/dL | CRE (24 h): 0.4 mg/dL | Ca (24 h): 10.9 mg/dL | Cl (24 h): 101.8 meq/L | DBIL (24 h): 0.098 mg/dL | GLC (24 h): 202.8 mg/dL | IP (24 h): 7.2 mg/dL | K (24 h): 4 meq/L | LDH (24 h): 204.6 IU/L | Na (24 h): 141 meq/L | PL (24 h): 154.4 mg/dL | RALB (24 h): 3.4 g/dL | TBIL (24 h): 0.2 mg/dL | TC (24 h): 77 mg/dL | TG (24 h): 118.2 mg/dL | TP (24 h): 5.6 g/dL | gamma-GTP (24 h): 0.8 IU/L
